Laboratory results from patent US20110183975A1, “NOVEL 6-AZAINDOLE AMINOPYRIMIDINE DERIVATIVES HAVING NIK INHIBITORY ACTIVITY” (priority 2008, published 2011).

What was measured:
[1] = biological target: T1, Truncated human NIK (Homo sapiens, UniProt Q99558); assay: NIK inhibitory activity: SRPKtide phosphorylation with [γ-33P] ATP, filter plate; format: biochemical; settings: GST-tagged truncated human NIK, 20 μM peptide substrate, 10 μM ATP, 25° C., 240 minutes
T1 construct: made in house; host or cells: Sf9 insect cells (baculovirus)
T1 sequence (Q99558 319-947): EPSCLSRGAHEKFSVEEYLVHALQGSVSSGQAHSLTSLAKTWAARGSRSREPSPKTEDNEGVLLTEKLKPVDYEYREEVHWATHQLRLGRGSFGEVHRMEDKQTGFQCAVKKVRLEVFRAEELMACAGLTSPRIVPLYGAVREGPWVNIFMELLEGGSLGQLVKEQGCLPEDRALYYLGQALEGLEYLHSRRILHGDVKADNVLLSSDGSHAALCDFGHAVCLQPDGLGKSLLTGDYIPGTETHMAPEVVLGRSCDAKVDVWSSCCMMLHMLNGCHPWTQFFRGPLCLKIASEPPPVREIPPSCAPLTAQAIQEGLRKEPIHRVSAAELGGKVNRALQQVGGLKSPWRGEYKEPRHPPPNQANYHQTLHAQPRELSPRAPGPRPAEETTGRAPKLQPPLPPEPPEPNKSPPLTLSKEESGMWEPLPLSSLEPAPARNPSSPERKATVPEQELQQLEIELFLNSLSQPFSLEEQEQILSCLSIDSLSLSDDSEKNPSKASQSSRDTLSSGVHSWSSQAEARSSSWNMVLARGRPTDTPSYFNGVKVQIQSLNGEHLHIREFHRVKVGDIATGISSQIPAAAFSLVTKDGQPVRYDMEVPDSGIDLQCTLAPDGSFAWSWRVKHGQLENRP
Description: Truncated human NIK [319-947(end) amino acids of accession number AAH35576] was expressed in sf9 cells as N-terminus gluthatione-S-transferase (GST)-tagged protein using baculovirus expression system. The sf9 cells were harvested and lysed, and then the GST-tagged human NIK protein was applied onto a glutathione column (GSTrap, GE Healthcare) and eluted from the column with reduced glutathione. The active fractions were desalted with a desalting column (PD-10, GE Healthcare) to give a purified enzyme.
For measurement of the activity of NIK, the SRPKtide peptide (Arg-Ser-Arg-Ser-Arg-Ser-Arg-Ser-Arg-Ser-Arg-Ser-Arg-Ser-Arg-NH2) (SEQ.ID.NO.:1) was synthesized as a substrate, as described above.
The phosphorylation reaction was conducted using 384 well plate, and the reaction volume was 10.5 μL/well. The reaction buffer is comprised of 10 mM 3-Morpholinopropanesulfonic acid buffer (pH 7.4), 5 mM magnesium chloride, 1 mM O,O′-Bis (2-aminoethyl) ethyleneglycol-N,N,N′,N′-tetraacetic acid (EGTA) and 1 mM dithiothreitol. Thereto, the purified NIK protein, 20 μM of the peptide substrate, 10 μM of adenosine 5′-triphosphate (ATP) and 0.5 μCi [γ-33P] ATP solution were added, and then the reaction was carried out at 25° C. for 240 minutes. The [γ-33P]-labeled ATP was purchased from PerkinElmer Inc.
After the termination of the reaction by adding 20 μL of 350 mM phosphoric acid (H3PO4), the substrate peptide was adsorbed on a filter plate (Millipore Multiscreen, MZPHN0W50). The substrate-bound filter plate was washed with 130 mM phosphoric acid for several times and then 8 μL of Microscinti-O (PerkinElmer Inc.) was added to the each well. The radiation activity of the peptide was measured with TopCount NXT Microscintillation Counter (PerkinElmer Inc.).
(§1) The compound to be tested was diluted in dimethylsulfoxide (DMSO) and then 0.5 μL of this solution was added to each well. Each control well was provided by adding 0.5 μL of DMSO to the well in place of the DMSO solution containing the compound to be tested.

[2] = biological target: T2, human NIK (U-2 OS Tet-On-NIK cells) (Homo sapiens, UniProt Q99558); assay: Cellular NIK inhibitory activity using ELISA-based IKKalpha phosphorylation assay; format: cell-based; settings: NIK dependent IKKalpha phosphorylation, doxycycline 2 micrograms/ml, 24 hours
T2 construct: expressed in transfected cells; host or cells: U-2 OS Tet-On cells carrying NF-kappa B reporter genes, stably transfected with pTRE2hyg-NIK
T2 sequence (Q99558 whole entry): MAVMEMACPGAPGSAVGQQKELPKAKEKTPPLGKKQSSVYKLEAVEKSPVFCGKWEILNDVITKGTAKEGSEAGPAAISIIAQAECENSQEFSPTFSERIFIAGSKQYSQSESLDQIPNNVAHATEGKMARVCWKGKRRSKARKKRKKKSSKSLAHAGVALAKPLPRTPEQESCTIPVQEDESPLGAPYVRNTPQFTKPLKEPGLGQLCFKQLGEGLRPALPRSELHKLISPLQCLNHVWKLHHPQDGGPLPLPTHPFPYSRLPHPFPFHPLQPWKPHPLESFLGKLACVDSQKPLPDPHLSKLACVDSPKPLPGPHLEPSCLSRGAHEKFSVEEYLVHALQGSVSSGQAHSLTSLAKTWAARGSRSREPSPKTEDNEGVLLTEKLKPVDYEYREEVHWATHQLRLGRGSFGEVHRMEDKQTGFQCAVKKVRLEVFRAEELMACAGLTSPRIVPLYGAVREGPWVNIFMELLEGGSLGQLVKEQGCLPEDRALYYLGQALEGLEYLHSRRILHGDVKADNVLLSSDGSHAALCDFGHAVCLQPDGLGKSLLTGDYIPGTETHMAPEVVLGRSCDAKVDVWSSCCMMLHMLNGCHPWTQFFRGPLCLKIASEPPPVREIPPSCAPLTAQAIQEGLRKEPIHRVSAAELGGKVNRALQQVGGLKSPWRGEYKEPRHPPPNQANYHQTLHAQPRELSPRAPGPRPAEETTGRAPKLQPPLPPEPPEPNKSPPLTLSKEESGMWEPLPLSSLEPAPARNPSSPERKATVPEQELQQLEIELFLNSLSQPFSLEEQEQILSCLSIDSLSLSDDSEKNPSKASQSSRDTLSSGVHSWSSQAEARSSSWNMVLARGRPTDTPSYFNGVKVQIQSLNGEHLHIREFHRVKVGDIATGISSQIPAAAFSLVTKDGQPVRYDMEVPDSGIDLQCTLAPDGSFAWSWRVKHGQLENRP
Experimental: NF-kappa B reporter genes (Clontech Laboratories, Inc.) was introduced into U-2 OS Tet-On cell line (Clontech Laboratories, Inc.) by the co-transfection with puromycin resistance gene (Clontech Laboratories, Inc.). […] NIK protein expression in this established cells (U-2 OS Tet-On-NIK) was controlled in a doxycycline dependent manner. The cells were cultured in DMEM containing 10% FBS, 100 units/ml of penicillin, 0.1 mg of streptomycin sulfate, 100 microgram/ml of hygromycin and 1 microgram/ml of puromycin (Growth medium).
U-2 OS Tet-On-NIK cells were plated on 96-well plate (Nunc) at 20000 cells per well and were incubated overnight at 37° C. in 5% CO2-95% air. The tested compound was diluted in dimethylsulfoxide (DMSO) and further diluted with a growth medium. Then the compound solution and doxycycline (Clontech Laboratories, Inc.) solution (final working concentration is 2 micrograms/ml) were simultaneously added to the each well. […]
Rabbit anti-IKKalpha [pSpS176/180] phosphospecific antibody (Biosource International, Inc.) or rabbit anti-IKKalpha antibody (Abcam, Inc.) was incubated on wells of an MAXISORP ELISA plate (Nunc) at 4° C. for overnight. […] After stopping HRP-reactions (SureBlue Reserve™ TMB substrate, Kirkegaard & Perry Laboratories, Inc.) by 1N hydrochloric acid, the optical density in each well was determined using a SpectraMax Plus 384 (Molecular Devices Corporation) at 450 nm.
Cellular NIK inhibitory activity of the test compound was represented as IC50 value determined by the following procedure.
Optical density of phospho-IKKalpha in each sample was normalized using the ratio of phospho-IKKalpha to total IKKalpha. The % of Control value was calculated by the following equation. […]
Then the IC50 value for NIK dependent IKKalpha phosphorylation was determined.

[3] = biological target: T3, human ROCK2 catalytic domain (Homo sapiens, UniProt O75116); assay: ROCK2 inhibitory activity: peptide phosphorylation, IMAP fluorescence polarization; format: biochemical; settings: for IC50: His-tagged human ROCK2, 100 nM peptide substrate, 5 μM ATP, 30° C., 150 minutes; for Selectivity of NIK over ROCK2: IC50 for ROCK2 divided by IC50 for NIK
T3 construct: made in house; host or cells: Sf9 insect cells
T3 sequence (O75116 11-552): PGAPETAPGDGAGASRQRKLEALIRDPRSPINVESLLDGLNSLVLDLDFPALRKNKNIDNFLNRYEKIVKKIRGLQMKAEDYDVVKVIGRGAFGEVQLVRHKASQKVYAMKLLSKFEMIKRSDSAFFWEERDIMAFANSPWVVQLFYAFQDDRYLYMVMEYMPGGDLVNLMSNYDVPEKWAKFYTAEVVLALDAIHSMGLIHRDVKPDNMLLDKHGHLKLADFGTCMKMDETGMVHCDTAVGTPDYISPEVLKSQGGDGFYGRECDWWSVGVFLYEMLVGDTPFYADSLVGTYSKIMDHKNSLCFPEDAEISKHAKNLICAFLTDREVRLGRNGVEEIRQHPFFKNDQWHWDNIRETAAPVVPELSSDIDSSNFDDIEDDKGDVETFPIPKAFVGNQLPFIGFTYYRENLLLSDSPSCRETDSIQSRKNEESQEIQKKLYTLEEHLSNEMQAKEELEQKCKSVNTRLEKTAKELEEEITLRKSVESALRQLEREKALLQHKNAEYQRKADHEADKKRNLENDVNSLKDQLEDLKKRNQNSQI
Description: cDNA of N-terminal His-tagged human ROCK2 catalytic domain [11-552 amino acids of accession number NP_00004841.2] was integrated into an expression vector, which was then highly expressed in sf9 cells. The sf9 cells were harvested and lysed, and then the His-tagged human ROCK2 protein was applied onto HisTrap HP (GE Healthcare) and eluted from the column with imidazole. The active fractions were desalted with a desalting column (PD-10, GE Healthcare) to give a purified enzyme.
For measurement of the activity of ROCK2, the substrate used was a synthetic peptide (5-FAM (5-carboxyfluorescein)-Ala-Lys-Arg-Arg-Arg-Leu-Ser-Ser-Leu-Arg-Ala-OH) (SEQ.ID.NO.:2) (Trauger J W. et. al, Biochemistry, 41, 8948-8953 (2002)), which was custom-made by JPT Peptide Technologies GmbH.
For detection of phosphorylation of the substrate, IMAP® technology (Molecular Devices, Co. Ltd.) (Gaudet E W. et. al, J. Biomol. Screen, 8, 164-175(2003)) was used.
The phosphorylation reaction was conducted using 384 well plate, and the reaction volume was 10.5 μL/well. The reaction buffer is comprised of 50 mM Tris-chloride buffer (pH 7.5), 10 mM magnesium acetate, 1 mM O,O′-Bis(2-aminoethyl)ethyleneglycol-N,N,N′,N′-tetraacetic acid (EGTA) and 1 mM dithiothreitol. Thereto, the purified ROCK2 protein, 100 nM of the peptide substrate, and 5 μM of adenosine 5′-triphosphate were added, and then the reaction was carried out at 30° C. for 150 minutes.
Thereafter, in order to terminate and detect the reaction, 30 μL of the IMAP (registered trademark) binding reagent (IMAP Progressive Binding Reagent) that had been diluted (1:500) in the 1× IMAP binding buffer A (IMAP Progressive Binding Buffer A, 5× stock) was added to each well. The solution stood still for 30 minutes in the dark, and then fluorescence polarization was measured using a high-end microplate reader (excitation wavelength: 485 nm; emission wavelength: 520 nm).
as §1, with “tested. In Table 3, the selectivity of NIK over ROCK2 was calculated by dividing the value of IC50 for ROCK2 by the value of IC50 for NIK.” for “tested.”

## CNC(=O)c1ccc(OC)c(Nc2nccc(-c3cn(C(C)C)c4cnccc34)n2)c1 [Example 71, 3-[4-(1-Isopropyl-1H-pyrrolo[2,3-c]pyridin-3-yl)-pyrimidin-2-ylamino]-4-methoxy-N-methyl-benzamide]
[1]
  IC50: 26.1 nM
[2]
  IC50: 200 nM
[3]
  IC50: 4520 nM
  Selectivity of NIK over ROCK2: 173.3

## Cc1ccc(C(N)=O)cc1Nc1nccc(-c2cn(C(C)C)c3cnccc23)n1 [Example 85, 3-[4-(1-Isopropyl-1H-pyrrolo[2,3-c]pyridin-3-yl)-pyrimidin-2-ylamino]-4-methyl-benzamide]
[1]
  IC50: 63.4 nM
[2]
  IC50: 140 nM
[3]
  IC50: 2590 nM
  Selectivity of NIK over ROCK2: 40.9

## CC(C)n1cc(-c2ccnc(Nc3ccccc3)n2)c2ccncc21 [Example 3, [4-(1-Isopropyl-1H-pyrrolo[2,3-c]pyridin-3-yl)-pyrimidin-2-yl]-phenyl-amine]
[1]
  IC50: 423 nM
[3]
  IC50: 86 nM
  Selectivity of NIK over ROCK2: 0.20

## CC(C)n1cc(-c2ccnc(Nc3cc(C(N)=O)ccc3OCc3ccccc3)n2)c2ccncc21 [Example 94, 4-Benzyloxy-3-[4-(1-isopropyl-1H-pyrrolo[2,3-c]pyridin-3-yl)-pyrimidin-2-ylamino]-benzamide]
[1]
  IC50: 84.5 nM
[2]
  IC50: 230 nM
[3]
  IC50: 1010 nM
  Selectivity of NIK over ROCK2: 11.9
